For data set [1], the system named is TRAMP mice. Kind of data set: DIM-supplemented diet, prostate tumorigenesis in TRAMP males. It counts as in vivo, mouse. To be noted: for Incidence of palpable tumor: sacrificed at 24 weeks, control 6/19; for Incidence of lymph nodes metastasis: control 5/19; for histological incidence of HG-PIN: control 54%. On the procedure:
Female hemizygous C57BL/TGN TRAMP mice, line PB Tag 8247NG, and male C57BL/6 mice were purchased from The Jackson Laboratory (Bar Harbor, Me., U.S.A.). The animals were bred on the same genetic background C57BL/6 and maintained in the Laboratory Animal Service facility at Rutgers University. Housing and care of the animals was performed in accordance with the guidelines established by the University's Animal Research Committee consistent with the NIH Guidelines for the Care and Use of Laboratory Animals, Transgenic males for the studies were obtained as [TRAMP×C57BL/6] F1 or [TRAMP×C57BL/6] […] Throughout the experiment the animals were housed in a temperature-control led room (68-72° F.) with a 12 h light dark cycle, at a relative humidity of 45% to 55%.
DIM was obtained from Sigma-Aldrich (St. Louis, Mo., U.S.A.). MN-76A diets containing 1% DIM were prepared by Research Diets Inc. (New Brunswick, N.J., U.S.A.) and stored at −20° C. The dose was chosen based in part on studies reported previously Anderton et al., Drug Metab Dispos. 2004; 32: 632-8; and Xue et al., J Nutr Biochem. 2008; 19: 336-44). In our present study, 1% DIM was well-tolerated with these TRAMP mice. The control TRAMP males (n=19) received A1N-76A diets throughout the experiment while the treated TRAMP males received 1% DIM diet starting from eight weeks of age (n=9) as Group 1 (D-G1) and Group 2 (D-G2) starting from twelve weeks of age (n=8) (FIG. 12A). Fresh diets were added to the cages twice weekly.
TRAMP males were weighed weekly and the overall health of the animals was monitored on a regular basis. All mice were sacrificed at the age of 24 weeks by carbon dioxide euthanasia and the genitourinary apparatus (GU) consisting of the seminal vesicles, prostate, and bladder were isolated for further analyses (FIG. 12B).
The dorso-lateral prostate (n=5) was excised and fixed in 10% formalin for 24 b and then transferred to 70% ethanol for 24 h. After dehydration processing, and embedding with paraffin, tissue sections ([…]) were cut from paraffin embedded prostate tissue and mounted on slides. The sections were stained with Hematoxylin and Eosin (H&E) to examine any neoplastic changes. Sections were evaluated by a histopathologist in a blinded fashion to classify prostatic intra-epithelial neoplasia (PIN) lesion, as we have reported previously (8, 12, 13, 30), Lesions were classified as PIN I, PIN II, PIN III, and PIN IV (Park et al., Am J Pathol. 2002; 161: 727-35). For ease of classification, PIN I and PIN II were combined as low grade PIN (LG-PIN) while PIN III and PIN IV were combined as high grade PIN (HG-PIN) as we have performed previously (8, 12, 30, 31).

Data set [2] deals with DNMT1. Kind of data set: qPCR in TRAMP C1 cells. It counts as cell-based, mouse. As to conditions: 5 μM and 10 μM, p<0.05. On the procedure: (§1) The DIM used in the study contains approximately 98% of DIM purchased from Sigma-Aldrich t St. Louis, Mo., USA), TRAMP C1 cells (provided by Dr. Barbara Foster, Department of Pharmacology and Therapeutics, Roswell Park Cancer institute, Buffalo. NY), originally derived from TRAMP prostate tumor, were cultured in Dulbecco's Modified Eagle's Medium (Invitrogen Corp., Carlsbad, Calif. U.S.A.) supplemented with 10% (V/V) fetal bovine serum (FBS) (Invitrogen Corp., Grand Island, N.Y., U.S.A.), penicillin 100 U/ml, and streptomycin 100 μg/ml (Invitrogen Corp., Grand Island, N.Y., U.S.A.), Cells were maintained in a humidified incubator with 5% CO2 at 37° C. Cells were seeded in 10 cm plates for 24 h and then treated with 0.1% DMSO (control) or different concentrations of DIM in 1% FBS containing medium for 5 days. The medium was changed every 2 days (20), Total RNA were extracted from DIM treated TRAMP C1 cells and were reversed transcribed. The primers, DNMT1, DNMT3a, DNMT3b, NQO1, HO-1, GSTm1, UGT1a1 and control β-actin of qPCR are listed in Table 5 (Integrated DNA. Technologies, Coralville, Iowa, U.S.A.), The qPCR reactions were carried out with 1 μl cDNA product, 50 nM of each primer, and Power SYBR Green master mix (Applied Biosystems, Foster City, Calif., U.S.A.) in 10 μl reactions. The reactions were performed using an ABI Prism 7900HT sequence detection system; specificity of amplification was verified by first-derivative inciting curve analysis using the ABI software (SDS 2.3, Applied Biosystems, Foster City, Calif., U.S.A.). Relative quantification of gene expression profile was calculated using a ΔΔCt method. (RQ manager, Applied Biosystems, Foster City, C. CA, U.S.A.) as we have performed previously (Barve et al., J Pharm Sci., 2008; 94: 4528-45). Three independent experiments were carried out showing similar results. The results are presented as mean±SD.

Data set [3] concerns DNMT3a. The data set is described as follows: qPCR in TRAMP C1 cells. It counts as cell-based, mouse. As to conditions: 5 μM, p<0.05. On the procedure: as §1
For data set [4], the system named is DNMT3b. The data set is described as follows: qPCR in TRAMP C1 cells. As to conditions: 5 μM and 10 μM. It counts as cell-based, mouse. The protocol: as §1
In data set [5] the test system is GSTm1. Kind of data set: qPCR in TRAMP C1 cells. It counts as cell-based, mouse. To be noted: 5 days. The protocol: as §1
Data set [6] deals with NQO1. Kind of data set: qPCR in TRAMP C1 cells. It counts as cell-based, mouse. As to conditions: 5 days. The protocol:
as §1

For data set [7], the system named is Nrf2. Kind of data set: qPCR in TRAMP C1 cells. It counts as cell-based, mouse. To be noted: 5 days. On the procedure: as §1
The conditions of data set [8]: oral, 2 mg/kg/day; cited from earlier work.
Setting [9] is: D-G2: 1% DIM diet from 12 weeks of age, p<0.05.

On to `c1ccc2c(Cc3c[nH]c4ccccc34)c[nH]c2c1` [DIM, 3,3′-diindolylmethane], for which the “Incidence of palpable tumor” value in data set [1] (D-G1: 1% DIM diet from 8 weeks of age) is listed as 1/9^a,; in data set [1] (setting [9]), 0/8^a, *. For the same compound, the “Incidence of lymph nodes metastasis” value was 0/9^b, # in data set [1] (D-G1: 1% DIM diet from 8 weeks of age, p<0.05) and 0/8^b, # in data set [1] (setting [9]). For the same compound, the “histological incidence of carcinoma” value in data set [1] (D-G1, control 46%) is reported as 20%; in data set [1] (D-G2) it was “no carcinoma”. The “histological incidence of HG-PIN” value in data set [1] (D-G1) is 20%; in data set [1] (D-G2), 80%. Besides, in data set [1] (D-G1 and D-G2 vs non-treated control, p<0.05), the “wet genitourinary apparatus (GU) weight” value is reported as “statistically significant decrease”. In data set [1] (D-G2), the “histological incidence of LG-PIN” value turned out to be 20%. Moreover, the “incidence of lymph node metastasis” value in data set [1] (DIM-treated mice overall vs 26.3% in control) is 0%. Moreover, the “percentage of palpable tumor” value in data set [1] (DIM-treated mice overall vs 31.6% in control) was 5.8%. Further, the “DNMT1 mRNA expression” value in data set [2] is “significantly suppressed”. In data set [3], the “DNMT3a mRNA expression” value was “suppressed”. The “DNMT3b mRNA expression” value in data set [4] is given as “suppressed”. In data set [5], the “GSTm1 mRNA expression” value is “enhanced”. Moreover, the “NQO1 mRNA expression” value in data set [6] is listed as “enhanced”. Moreover, the “Nrf2 mRNA expression” value in data set [7] was “enhanced”. Also, in data set [8], the tolerability entry is listed as “well tolerated with no significant toxicity”.

Values taken from patent US8916604B2, “Compositions and methods for epigenetic modification of nucleic acid sequences” (Rutgers, The State University of New Jersey, priority 2011, dated 2014).
